Laboratory results taken from US8097625B2, “Combination of sedative and a neurotransmitter modulator, and methods for improving sleep quality and treating depression” (priority 2003, dated 2012).

System: subjects with insomnia related to major depressive disorder
Assay: DREAMDD clinical study: Hamilton Depression Rating Scale (HAMD17)
Assay type: in vivo, human
Protocol: The change from baseline to each double-blind, post-treatment visit in the HAM-D-17 score as well as the change from baseline to each double-blind, weekly, post-treatment assessments in the HAM-D-6 (Bech) scores and HAM-D-6 (Maier) scores was presented descriptively (n, mean, median, standard deviation, minimum, 25th percentile, median, 75th percentile, and maximum) by treatment. Treatment comparisons were performed at each assessed time point. The analysis compared the eszopiclone 3 mg group to placebo using an analysis of variance model (ANOVA) with treatment and site as fixed effects. The analysis was performed using the SAS MIXED procedure.
Hamilton Depression Rating Scale (HAM-D17): During this analysis, a medical professional evaluates the patient according to seventeen criteria by selecting the response that best characterizes the patient's behavior during the past week. The criteria and responses are based on that described in Br. J. Soc. Clin. Psychol. 6: 278-296 (1967) and are reproduced below. Question 1: Depressed mood (Sadness, hopeless, helpless, worthless); Response: 0—Absent, 1—These feeling states indicated only on questioning, 2—These feeling states spontaneously reported verbally, 3—Communicates feeling states non-verbally i.e., through facial expression, posture, voice, and tendency to weep, or 4—Patient report virtually only these feeling states in their spontaneous verbal and non-verbal communication. Question 2: Feeling of guilt; Response: 0—Absent, 1—Self reproach, feels they have let people down, 2—Ideas of guilt or rumination over past errors or sinful deeds, 3—Present illness is a punishment and/or has delusions of guilt, or 4—Hears accusatory or denunciatory voices and/or experiences threatening visual hallucinations. Question 3: Suicide; Response: 0—Absent, 1—Feels life is not worth living, 2—Wishes they were dead or any thoughts of possible death to self, 3—Suicide ideas or gesture, 4-Attempts at suicide (any serious attempt rates 4). Question 4: Insomnia early; Response: 0—No difficulty falling asleep; 1—Complains of occasional difficulty falling asleep—i.e., more than ½ hour; or 2—complains of nightly difficulty falling asleep. Question 5: Insomnia middle; Response: 0—No difficulty, 1—patient complains of being restless and disturbed during the night, or 2—Waking during the night—any getting out of bed rates 2 (except for purposes of voiding). Question 6: Insomnia Late; Response: 0—No difficulty, 1—Waking in early hours of the morning but goes back to sleep, or 2—Unable to fall asleep again if they get out of bed. […] Question 8: Retardation (Slowness of thought and speech; impaired ability to concentrate; decreased motor activity); Response: 0—Normal speech and thought, 1—Slight retardation at interview, 2—Obvious retardation at interview, 3—Interview difficult, or 4—Complete stupor. Question 9: Agitation; Response: 0—None; 1—Fidgetiness; 2—Playing with hands, hair, etc.; 3—Moving about, can't sit still; or 4—Hand wringing, nail biting, hair-pulling, biting of lips. Question 10: Anxiety psychic: 0—No difficulty, 1—Subjective tension and irritability, 2—Worrying about minor matters, 3—Apprehensive attitude apparent in face or speech, or 4—Fears expressed without questioning. Question 11: Anxiety somatic (Physiological concomitants of anxiety, such as:—Gastro-intestinal: dry mouth, wind, indigestion, diarrhea, cramps, belching.—Cardio-vascular: palpitations, headaches.—Respiratory: hyperventilation, sighing.—Urinary frequency—Sweating); Response: 0—Absent, 1—Mild, 2—Moderate, 3—Severe, or 4—Incapacitating. Question 12: Somatic symptoms gastro-intestinal; Response: 0—None, 1—Loss of appetite but eating without staff encouragement and/or heavy feelings in abdomen; or 2—Difficulty eating without staff urging and/or requests or requires laxatives or medication for bowels or medication for gastro-intestinal symptoms. […]

`CN1CCN(C(=O)OC2c3nccnc3C(=O)N2c2ccc(Cl)cn2)CC1` (single isomer, unassigned; (+)) [Eszopiclone, (+) 6-(5-chloro-2-pyridinyl)-6,7-dihydro-7-oxo-5H-pyrrolo[3,4b]pyrazin-5-yl 4-methylpiperazine-1-carboxylate] was tested, and the “HAMD 17 differences in patients with more severe depression (baseline HAMD 17≧22)” value (3 mg nightly + fluoxetine vs placebo) was “greater”, the “changes in HAMD17 scores” value (Week 4, p=0.02 vs placebo, 3 mg nightly + fluoxetine 20 mg QAM) was −9.9 and the “changes in HAMD17 scores” value (Week 8, p<0.001 vs placebo, 3 mg nightly + fluoxetine) was −13.8. For the same compound, the “responders (50% decrease from baseline HAMD17)” value (Week 8, p<0.009 vs placebo, 3 mg nightly + fluoxetine) was 74%, the “remitters (HAMD17≦7)” value (Week 8, p<0.02 vs placebo, 3 mg nightly + fluoxetine) was 54% and the “HAMD17 with removal of insomnia items, versus placebo” value (Week 8, p<0.03, 3 mg nightly + fluoxetine) was “significant differences”. The “augmentation effect versus agents currently used for augmentation therapy, such as lithium” value (co-administration with fluoxetine) was “larger” and the “augmentation effect by severity of depression” value (end of the 8 week treatment period) was “most pronounced in the most severely depressed patients”.
